The nature of series [1]: Relative phenolic and PAH contents of mainstream TPM by GC/MS (FTC smoking, 3rd and 4th puffs). As to conditions: change of relative content in mainstream TPM, tobacco treated with acetate salt alone. The source says: (§1) Under FTC conditions, the 3rd and 4th puffs of the mainstream TPM are collected. The relative phenolic and PAH contents are obtained by GC/MS methods. The TPM cytotoxicity data is obtained using the Neutral Red Uptake, while mutagenicity data is obtained using Ames assays.
(§2) Under FTC conditions, the 3rd and 4th puffs of the mainstream TPM are collected. The relative phenolic and PAH contents are obtained by GC/MS methods. The TPM cytotoxicity and mutagenicity data are obtained using Neutral Red Uptake and Ames assays, respectively.

Series [2] relates to TPM mutagenicity. The series can be described thus: TPM mutagenicity, Ames assays. As to conditions: for Mutagenicity: change of TPM mutagenicity, tobacco treated with acetate salt alone, FTC, 3rd and 4th puffs; for mutagenicity of the mainstream smoke (in words): mainstream smoke TPM of treated tobacco. The format is cell-based.
From the text: as §1, §2
Background: The Ames test uses bacterial strains that need an amino acid and regain growth without it when mutated back.

Series [3] has as its system TPM cytotoxicity. Nature of the series: TPM cytotoxicity, Neutral Red Uptake. The format is cell-based. To be noted: change of TPM cytotoxicity; tobacco treated with acetate salt alone; FTC, 3rd and 4th puffs.
From the text: as §1, §2

The results in this text go back to US20090000631A1, “Smoking articles and method for incorporating salts of lanthanide metals for reducing TPM cytotoxicity and targeted constituents in tobacco smoke” (Philip Morris USA Inc., priority 2007, published 2009).

Turning to `CC(=O)[O-].CC(=O)[O-].CC(=O)[O-].O.[Lu+3]` [8.2% Lu(OAc)3•H2O, Lu(OAc)3•H2O], in series [1], the HQ is listed as −49%, the Naphthalene is −33%, the catechol is −33% and the resorcinol is −39%. Besides, in series [2], the Mutagenicity result is given as “— (No significant change (absolute change <20%))” and the “mutagenicity of the mainstream smoke (in words)” value (“mutagenicity … (in words)” for short) is “reduced”. Besides, in series [3], the Cytotoxicity result is on record as “— (No significant change (absolute change <20%))”.
Turning to `CC(=O)[O-].CC(=O)[O-].CC(=O)[O-].[La+3]` [8% La(OAc)3•xH2O (x ≦ 2), La(OAc)3•xH2O], in series [1], the HQ was −60%, the Naphthalene is −51%, the catechol is on record as −41% and the resorcinol is −56%. In addition, in series [2], the Mutagenicity was −46% and the “mutagenicity … (in words)” value is “reduced”. The Cytotoxicity in series [3] is on record as −25%.
Regarding `CC(=O)[O-].CC(=O)[O-].CC(=O)[O-].O.[Ce+3]` [7.4% Ce(OAc)3•H2O, Ce(OAc)3•H2O], in series [1], the HQ is on record as −23%, the Naphthalene is given as −47%, the catechol is −54% and the resorcinol result is “— (No significant change (absolute change <20%))”. The Mutagenicity result in series [2] was “— (No significant change (absolute change <20%))”. Moreover, the Cytotoxicity result in series [3] is “— (No significant change (absolute change <20%))”.
Regarding `CC(=O)[O-].CC(=O)[O-].CC(=O)[O-].O.[Eu+3]` [8% Eu(OAc)3•H2O, Eu(OAc)3•H2O], in series [1], the HQ was −39%, the Naphthalene is −54%, the catechol is −48% and the resorcinol is −33%. In series [2], the Mutagenicity is listed as −21% and the “mutagenicity … (in words)” value is reported as “reduced”. Besides, the Cytotoxicity result in series [3] is “— (No significant change (absolute change <20%))”.
